Results on three molecules are retold here after patent EP0710486A1, “REMEDY FOR URINATION DISORDER ACCOMPANYING PROSTATIC HYPERTROPHY” (YAMANOUCHI PHARMACEUTICAL CO. LTD., priority 1993, dated 1995).

Read-outs that look alike come from different tables or passages of the source.

For series [1], the target named is T1, rat α1B-receptor subtype (Rattus norvegicus, UniProt P15823).
T1 sequence (P15823 1-515): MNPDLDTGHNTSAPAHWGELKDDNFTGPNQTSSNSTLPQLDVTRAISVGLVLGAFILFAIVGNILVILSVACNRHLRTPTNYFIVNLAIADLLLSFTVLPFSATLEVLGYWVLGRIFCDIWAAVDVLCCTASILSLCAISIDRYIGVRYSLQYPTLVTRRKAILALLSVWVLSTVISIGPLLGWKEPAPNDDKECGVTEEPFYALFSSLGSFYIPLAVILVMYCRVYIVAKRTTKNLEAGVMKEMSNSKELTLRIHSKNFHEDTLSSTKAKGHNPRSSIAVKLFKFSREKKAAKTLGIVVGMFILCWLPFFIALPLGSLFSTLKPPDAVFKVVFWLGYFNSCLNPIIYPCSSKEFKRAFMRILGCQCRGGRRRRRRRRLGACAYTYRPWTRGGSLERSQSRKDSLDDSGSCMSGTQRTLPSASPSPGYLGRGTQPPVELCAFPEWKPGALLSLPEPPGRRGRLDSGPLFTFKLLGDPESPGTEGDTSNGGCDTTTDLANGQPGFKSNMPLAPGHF
Nature of the series: Competitive binding experiment against [³H] prazosin, transfected COS-7 cell membranes. More on the design: pcDV1Rα1B which contains a 2573 bp fragment containing the entire coding region of α1B receptor subtype cDNA; expressed in transfected cells; host or cells: COS-7 cells, transient expression, membrane preparation. As to the method:
(§1) After 4 days of the transfection, these cells were again suspended in an ice-cold buffer for binding experiment (50 mmol/l Tris, 0.5 mmol/l EDTA, pH 7.5) and homogenized using Tissumeizer for 10 seconds at a maximum speed and then twice for 20 seconds at 2/3 speed. The thus obtained homogenate was centrifuged at 50,000 g for 20 minutes, and the resulting pellet was again suspended in the buffer for binding experiment to a concentration of 0.5 to 2 mg/ml.
(§2) This incubation was terminated by quick filtration under a reduced pressure using Whatman GF/C filter paper. Non-specific binding was defined as binding in the presence of 10 µmol/l of phentolamine. […] The protein content was determined in accordance with the Bradford method using bovine IgG as an standard. In the competitive binding experiment, each compound was evaluated by 3 to 4 tests using at least two separate batches of transfected cells.
(§3) The result was shown as the average value ± SEM of n times of tests.

Series [2] deals with T2, bovine α1C-receptor subtype (Bos taurus, UniProt P18130).
T2 construct: pBCα1c which contains the entire coding region of bovine α1C receptor subtype; expressed in transfected cells; host or cells: COS-7 cells, transient expression, membrane preparation
T2 sequence (P18130 1-466): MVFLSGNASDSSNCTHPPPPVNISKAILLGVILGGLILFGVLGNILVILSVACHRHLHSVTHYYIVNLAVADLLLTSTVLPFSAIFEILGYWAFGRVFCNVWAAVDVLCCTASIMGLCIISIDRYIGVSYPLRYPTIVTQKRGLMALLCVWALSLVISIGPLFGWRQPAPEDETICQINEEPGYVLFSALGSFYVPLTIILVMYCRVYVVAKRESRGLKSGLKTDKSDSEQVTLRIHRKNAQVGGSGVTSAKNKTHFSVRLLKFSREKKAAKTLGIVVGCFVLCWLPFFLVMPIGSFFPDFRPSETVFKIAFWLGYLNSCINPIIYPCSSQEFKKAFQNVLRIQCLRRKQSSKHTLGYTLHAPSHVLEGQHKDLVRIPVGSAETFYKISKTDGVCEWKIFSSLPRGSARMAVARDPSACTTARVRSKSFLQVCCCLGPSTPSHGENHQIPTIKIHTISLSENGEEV
Described as above.

The conditions of series [3]: human clinical tests (K. Kawabe et al., J. Urol., 1990); cited from earlier work.
Series [4] concerns the target T3, rat α1A/D-receptor subtype (Rattus norvegicus, UniProt P23944).
T3 sequence (P23944 1-561): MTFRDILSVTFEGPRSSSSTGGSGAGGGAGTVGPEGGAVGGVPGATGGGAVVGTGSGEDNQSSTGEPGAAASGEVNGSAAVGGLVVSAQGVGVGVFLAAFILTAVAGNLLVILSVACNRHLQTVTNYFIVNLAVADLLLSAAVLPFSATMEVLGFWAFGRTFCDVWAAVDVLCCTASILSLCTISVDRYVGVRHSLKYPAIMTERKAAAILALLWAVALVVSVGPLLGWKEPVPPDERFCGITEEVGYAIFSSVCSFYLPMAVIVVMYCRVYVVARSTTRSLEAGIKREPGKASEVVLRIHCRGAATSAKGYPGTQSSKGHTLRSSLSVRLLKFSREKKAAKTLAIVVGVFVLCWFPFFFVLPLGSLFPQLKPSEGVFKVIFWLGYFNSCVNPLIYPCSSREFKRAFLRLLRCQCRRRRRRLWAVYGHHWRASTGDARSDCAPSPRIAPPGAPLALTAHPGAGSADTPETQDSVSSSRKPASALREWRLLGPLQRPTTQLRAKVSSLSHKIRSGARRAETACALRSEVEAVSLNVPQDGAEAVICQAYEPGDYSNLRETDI
Particulars: average ± SEM, n=8. As to the method: as §1, §2, §3

For series [5], the target named is T1, rat α1B-receptor subtype. Particulars: average ± SEM, n=5. As to the method: as §1, §2, §3
Setting [6] is: read-out: negative logarism values (-log values) of Ki values (converted).

One may read the Ki as the equilibrium dissociation constant of an inhibitor or competing ligand from its target.

As to `CCOc1ccccc1OCCN[C@H](C)Cc1ccc(OC)c(S(N)(=O)=O)c1` [Compound A, R(-)-5-[2-[[2-(o-ethoxyphenoxy)ethyl]amino]propyl]-2-methoxybenzenesulfonamide], the Ki on rat α1B-receptor subtype [1] (setting [6]) was 0.871 nM. The molecule also showed a Ki in series [2] of 0.0229 nM. Besides, in series [3], the “influence upon blood pressure” value is on record as “without exerting influence upon blood pressure”, the side effects entry is on record as “hardly shows side effects” and the “treatment of urinary outlet obstruction associated with benign prostatic hyperplasia” value is recorded as “useful in treating urinary outlet obstruction associated with benign prostatic hyperplasia”.
On to `CCOc1ccccc1OCCN[C@@H](C)Cc1ccc(OC)c(S(N)(=O)=O)c1` [Compound B, S(+)-5-[2-[[2-(o-ethoxyphenoxy)ethyl]amino]propyl]-2-methoxybenzenesulfonamide], for which the values for the inhibition constant Ki (on rat α1B-receptor subtype [1]; in series [2] (setting [6])) were 105 nM and 0.347 nM, respectively.
Take [³H] prazosin: the BMAX came out at 240 ± 87 fmol/mg protein in series [4] and 1673 ± 1203 fmol/mg protein on rat α1B-receptor subtype [5].
